Experimental data: ChEMBL document CHEMBL6071160, “Identification of a novel 10-hydroxyevodiamine prodrug as a potent topoisomerase inhibitor with improved aqueous solubility for treatment of hepatocellular carcinoma” (Eur J Med Chem, 2024)
Active and inactive are the calls of the source. No cut-off for these calls is given here.

Assays:
Huh-7 [1] = assay: Antiproliferative activity against human Huh-7 cells assessed as inhibition of colony formation at 10 to 40 nM measured 1 to 2 weeks by human tumor clonogenic assays (HTCA); type: functional, cell-based; conditions: dose 10-40 nM, time 1-2 weeks
[2] = Prodrug conversion in rat plasma assessed as half life by measuring parent 10-hydroxyevodiamine derivative release by HPLC analysis; type: ADME, cell-free
[3] = Toxicity in BALB/c nude mouse subcutaneously injected with human Huh-7 cells assessed as change in body weight at 40 mg/kg, ip administered once other day measured after 14 days; type: organism-based; conditions: in vivo, 336 h, time 14 day
Huh-7 [4] = assay: Induction of apoptosis in human Huh-7 cells assessed as late apoptotic cells at 40 nM measured after 24 hrs by Annexin-V-FITC/PI analysis (reference value: 1.23%); type: functional
Huh-7 [5] = assay: Induction of apoptosis in human Huh-7 cells assessed as loss of mitochondrial membrane potential by measuring JC-1 stained cells at 40 nM measured after 24 hrs by JC-1 staining based flow cytometry (reference value: 2.27%); type: functional
SK-HEP1 = assay: Induction of apoptosis in human SK-HEP1 cells assessed as ROS generation by measuring DCFH2-DA stained cells at 80 nM measured after 24 hrs […] (reference value: 0.14%); type: functional

## C[N+](C)(C)CCC(=O)Oc1ccc2[nH]c3c(c2c1)CCN1C(=O)c2cc(F)cc(F)c2N(c2cccc(F)c2)C31.[I-] (stereo unspecified)
Huh-7 [1]
  Activity: Active
[2]
  t1/2: 30 min
[3]
  Activity: Non-Toxic
Huh-7 [4]
  Activity: 2.89%
Huh-7 [5]
  Activity: 3.05%
SK-HEP1
  Activity: 56.75%
